Source: the supplement of paper PMC13380429

What was measured:
Settings in all cases: 72 h
U2OS [1] = assay: relative viability EC50 (midpoint between 100% and the lowest measured viability); higher = less toxic
Caco-2 [2] = assay: as above
Vero E6 [3] = assay: as above
HepG2 [4] = assay: as above
U2OS [5] = assay: cell viability relative to DMSO; higher = less toxic
Caco-2 [6] = assay: as above
Vero E6 [7] = assay: as above
HepG2 [8] = assay: as above
U2OS [9] = assay: drug sensitivity score (DSS) for viability; higher = more toxic; extreme values may be limits of the assay
Caco-2 [10] = assay: as above
Vero E6 [11] = assay: as above
HepG2 [12] = assay: as above
Calu-3 [13] = assay: cell viability relative to DMSO; higher = less toxic
Calu-3 [14] = assay: drug sensitivity score (DSS) for viability; higher = more toxic; extreme values may be limits of the assay
Calu-3 [15] = assay: relative viability EC50 (midpoint between 100% and the lowest measured viability); higher = less toxic

Structure (SMILES) | relative viability EC50 (U2OS [1]) [µM] | relative viability EC50 (Caco-2 [2]) [µM] | relative viability EC50 (Vero E6 [3]) [µM] | relative viability EC50 (HepG2 [4]) [µM] | cell viability (U2OS [5]; 1 nM) [%] | cell viability (U2OS [5]; 10 nM) [%] | cell viability (U2OS [5]; 100 nM) [%] | cell viability (U2OS [5]; 1000 nM) [%] | cell viability (U2OS [5]; 10000 nM) [%] | cell viability (Caco-2 [6]; 1 nM) [%] | cell viability (Caco-2 [6]; 10 nM) [%] | cell viability (Caco-2 [6]; 100 nM) [%] | cell viability (Caco-2 [6]; 1000 nM) [%] | cell viability (Caco-2 [6]; 10000 nM) [%] | cell viability (Vero E6 [7]; 1 nM) [%] | cell viability (Vero E6 [7]; 10 nM) [%] | cell viability (Vero E6 [7]; 100 nM) [%] | cell viability (Vero E6 [7]; 1000 nM) [%] | cell viability (Vero E6 [7]; 10000 nM) [%] | cell viability (HepG2 [8]; 1 nM) [%] | cell viability (HepG2 [8]; 10 nM) [%] | cell viability (HepG2 [8]; 100 nM) [%] | cell viability (HepG2 [8]; 1000 nM) [%] | cell viability (HepG2 [8]; 10000 nM) [%] | drug sensitivity score (U2OS [9]) | drug sensitivity score (Caco-2 [10]) | drug sensitivity score (Vero E6 [11]) | drug sensitivity score (HepG2 [12]) | cell viability (Calu-3 [13]; 1 nM) [%] | cell viability (Calu-3 [13]; 10 nM) [%] | cell viability (Calu-3 [13]; 100 nM) [%] | cell viability (Calu-3 [13]; 1000 nM) [%] | cell viability (Calu-3 [13]; 10000 nM) [%] | drug sensitivity score (Calu-3 [14]) | relative viability EC50 (Calu-3 [15]) [µM]
C[C@@H](O)[C@H]1C(=O)N2C(C(=O)[O-])=C(SC3Cn4cnc[n+]4C3)[C@H](C)[C@H]12 (stereo partly specified) [biapenem] | > 10 | > 10 | > 10 | > 10 | 98.6 | 104 | 96.3 | 97.1 | 100 | 86.6 | 104 | 96.3 | 93.3 | 97.3 | 98.1 | 100 | 94.7 | 103 | 99.8 | 97.1 | 98 | 93.3 | 90.7 | 95.2 | 0 | 0 | 0 | 0 |  |  |  |  |  |  | 
CC(C)CCC[C@@H](C)[C@H]1CC[C@H]2[C@@H]3CC=C4C[C@@H](O)CC[C@]4(C)[C@H]3CC[C@]12C [cholesterol] | > 10 | > 10 | > 10 | > 10 | 102 | 93.3 | 98.2 | 94 | 100 | 89.4 | 92.1 | 102 | 90.4 | 98.9 | 97.1 | 98.2 | 92.2 | 97.6 | 107 | 92.6 | 97.4 | 91.6 | 106 | 104 | 0 | 0 | 0 | 0 |  |  |  |  |  |  | 
CN(C)NC(=O)CCC(=O)O [daminozide] | > 10 | > 10 | > 10 | > 10 | 97.8 | 97.8 | 95 | 101 | 101 | 93.5 | 96.3 | 96.5 | 98.3 | 100 | 94.6 | 98.2 | 97.1 | 98.3 | 103 | 103 | 96.4 | 102 | 102 | 103 | 0 | 0 | 0 | 0 |  |  |  |  |  |  | 
CC[C@@](C)(Nc1ccnc(-c2c[nH]c3ncccc23)n1)C(=O)NCC(F)(F)F [decernotinib] | > 10 | > 10 | > 10 | > 10 | 96.5 | 101 | 94.2 | 98.3 | 98 | 97.4 | 97.3 | 99 | 95.4 | 109 | 100 | 100 | 105 | 99.1 | 107 | 94.2 | 101 | 96.6 | 107 | 109 | 0 | 0 | 0 | 0 |  |  |  |  |  |  | 
O=C(O)c1ccc(-n2nc(-c3ccccc3O)nc2-c2ccccc2O)cc1 [deferasirox] | 2.16 |  |  | 2.17 | 103 | 102 | 99 | 93.5 | 47.1 | 110 | 92.5 | 104 | 96 | 58.8 | 104 | 104 | 106 | 101 | 56.9 | 110 | 93.2 | 106 | 91.6 | 31.3 | 3.9 | 2.7 | 2.1 | 5.2 | 99.7 | 100 | 97.4 | 104 | 72.2 | 0.9 | 
Clc1ccc(C(Cn2ccnc2)OCc2ccc(Sc3ccccc3)cc2)c(Cl)c1 (stereo unspecified) [fenticonazole] | > 10 |  | > 10 |  | 101 | 97.8 | 100 | 99.1 | 96 | 102 | 94.8 | 95 | 91.3 | 73.3 | 109 | 108 | 106 | 107 | 97.8 | 116 | 108 | 114 | 110 | 68.5 | 0 | 1.7 | 0 | 1 | 100 | 88.6 | 97 | 101 | 85.7 | 0.1 | > 10
CC(C)n1c(/C=C/[C@@H](O)C[C@@H](O)CC(=O)O)c(-c2ccc(F)cc2)c2ccccc21 [fluvastatin] | 3.24 | > 10 | 2.05 |  | 99.6 | 109 | 95.7 | 101 | 45.1 | 92.4 | 103 | 101 | 89.1 | 80 | 100 | 100 | 103 | 91.2 | 37.5 | 97 | 104 | 99.2 | 90.7 | 71.3 | 2.9 | 1.7 | 4.9 | 2.5 | 99 | 96.7 | 96.6 | 105 | 65.4 | 1.3 | 
COc1c2occc2c(OC)c2c(=O)cc(C)oc12 [khellin] | > 10 | > 10 | > 10 | > 10 | 103 | 98.6 | 99.5 | 98.8 | 96.3 | 97.1 | 110 | 94.9 | 107 | 102 | 105 | 99.8 | 94.2 | 99.7 | 98.5 | 96.2 | 99.2 | 96.6 | 89 | 90.1 | 0 | 0 | 0 | 0.3 |  |  |  |  |  |  | 
COc1cc2nccc(Oc3ccc(NC(=O)NC4CC4)c(Cl)c3)c2cc1C(N)=O [lenvatinib] | > 10 | > 10 | > 10 | > 10 | 105 | 101 | 101 | 90.8 | 76.3 | 106 | 95.5 | 94.7 | 91.2 | 75.6 | 102 | 106 | 106 | 99.1 | 99.6 | 110 | 108 | 105 | 110 | 95.4 | 2 | 1.4 | 0 | 0 | 115 | 98.1 | 89.6 | 94.7 | 68.3 | 2.3 | 
FC(F)(F)c1ccc(/C=C/c2nc(COc3ccc(CCCCn4ccnn4)cc3)co2)cc1 [mubritinib] | > 10 | > 10 | > 10 | 0.429 | 100 | 103 | 93.7 | 93.7 | 97.2 | 97.5 | 109 | 92.5 | 81.6 | 84.9 | 103 | 103 | 100 | 103 | 88.4 | 106 | 104 | 78.3 | 56 | 28.1 | 0 | 3.1 | 0 | 10.8 |  |  |  |  |  |  | 
Cc1nc2ccccn2c(=O)c1CCN1CCC(C(=O)c2ccc(F)cc2)CC1 [pirenperone] | > 10 | > 10 | > 10 | > 10 | 106 | 106 | 103 | 99.2 | 103 | 103 | 101 | 99.5 | 90.6 | 106 | 92.6 | 101 | 95.6 | 100 | 97.2 | 110 | 113 | 108 | 99.2 | 90.2 | 0 | 0 | 0 | 0 |  |  |  |  |  |  | 
CN(C)C(=O)c1cc2cnc(Nc3ccc(N4CCNCC4)cn3)nc2n1C1CCCC1 [ribociclib] | > 10 | > 10 | > 10 |  | 92.8 | 96.9 | 92.7 | 98.4 | 90.4 | 92.1 | 95.9 | 96.1 | 95 | 90.3 | 95.5 | 98.8 | 98 | 94.4 | 84 | 95.1 | 101 | 87.5 | 78 | 71.8 | 0 | 0 | 0.6 | 4.5 | 99.7 | 90.3 | 94 | 95.3 | 73.1 | 1.8 | 
